# Assay results published in patent publication US12103919B2, “3-(5-oxy)-1-oxoisoindolin-2-yl)piperidine-2,6-dione derivatives and uses thereof” (NOVARTIS AG, priority 2021, dated 2024).
# Like-named read-outs stand apart in the source and are kept apart here.
# Assays:
# SALL4 = target: T1, SALL4 (Homo sapiens, UniProt Q96SW2+Q9UJQ4); assay: Quantification of SALL4 protein levels in HiBiT tag fusion protein assay; format: cell-based
# T1 construct: expressed in transfected cells; host or cells: GripTite 293 MSR cells (293GT), ThermoFisher Scientific, stably transfected by electroporation, blasticidin-selected clones
# T1 sequence (Q9UJQ4 whole entry, the tested form may be a part): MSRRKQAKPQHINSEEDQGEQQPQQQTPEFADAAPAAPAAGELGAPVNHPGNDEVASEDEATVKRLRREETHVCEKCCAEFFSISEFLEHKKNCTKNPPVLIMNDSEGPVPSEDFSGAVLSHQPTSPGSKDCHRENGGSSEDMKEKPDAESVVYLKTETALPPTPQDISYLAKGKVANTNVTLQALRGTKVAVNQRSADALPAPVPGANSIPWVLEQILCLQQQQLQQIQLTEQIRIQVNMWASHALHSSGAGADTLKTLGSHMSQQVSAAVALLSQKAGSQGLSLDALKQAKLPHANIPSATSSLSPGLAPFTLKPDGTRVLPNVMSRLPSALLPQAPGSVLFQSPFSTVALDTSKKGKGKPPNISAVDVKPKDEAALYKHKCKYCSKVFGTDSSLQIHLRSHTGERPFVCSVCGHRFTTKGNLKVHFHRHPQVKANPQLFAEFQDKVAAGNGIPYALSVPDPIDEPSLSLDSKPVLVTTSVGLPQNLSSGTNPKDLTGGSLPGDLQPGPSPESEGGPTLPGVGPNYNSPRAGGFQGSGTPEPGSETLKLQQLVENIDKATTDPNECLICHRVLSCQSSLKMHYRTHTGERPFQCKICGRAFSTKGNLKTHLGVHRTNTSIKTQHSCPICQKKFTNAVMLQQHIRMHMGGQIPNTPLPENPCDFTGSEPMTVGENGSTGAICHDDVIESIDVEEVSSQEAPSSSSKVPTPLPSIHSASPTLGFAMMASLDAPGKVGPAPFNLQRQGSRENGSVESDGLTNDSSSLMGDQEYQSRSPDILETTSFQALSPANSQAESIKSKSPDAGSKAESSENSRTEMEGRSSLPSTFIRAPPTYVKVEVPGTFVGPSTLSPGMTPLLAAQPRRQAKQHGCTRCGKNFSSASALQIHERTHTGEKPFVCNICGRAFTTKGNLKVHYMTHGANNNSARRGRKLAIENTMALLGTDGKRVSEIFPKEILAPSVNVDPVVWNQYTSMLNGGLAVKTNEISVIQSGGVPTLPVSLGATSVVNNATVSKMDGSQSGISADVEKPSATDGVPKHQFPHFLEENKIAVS
# T1 sequence (Q96SW2 whole entry, the tested form may be a part): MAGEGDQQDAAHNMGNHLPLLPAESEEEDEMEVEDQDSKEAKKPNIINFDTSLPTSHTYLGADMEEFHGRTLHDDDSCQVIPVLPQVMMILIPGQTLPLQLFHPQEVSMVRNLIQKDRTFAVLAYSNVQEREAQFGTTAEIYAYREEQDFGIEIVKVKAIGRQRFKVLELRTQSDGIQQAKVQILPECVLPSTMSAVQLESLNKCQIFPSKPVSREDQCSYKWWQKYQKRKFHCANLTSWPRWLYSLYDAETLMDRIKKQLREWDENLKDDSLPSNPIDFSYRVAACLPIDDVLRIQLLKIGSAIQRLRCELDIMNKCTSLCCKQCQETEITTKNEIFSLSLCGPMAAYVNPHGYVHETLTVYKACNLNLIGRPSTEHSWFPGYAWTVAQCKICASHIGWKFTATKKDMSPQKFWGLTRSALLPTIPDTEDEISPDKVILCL
# T1 sequence (Q16531 whole entry partner, the tested form may be a part): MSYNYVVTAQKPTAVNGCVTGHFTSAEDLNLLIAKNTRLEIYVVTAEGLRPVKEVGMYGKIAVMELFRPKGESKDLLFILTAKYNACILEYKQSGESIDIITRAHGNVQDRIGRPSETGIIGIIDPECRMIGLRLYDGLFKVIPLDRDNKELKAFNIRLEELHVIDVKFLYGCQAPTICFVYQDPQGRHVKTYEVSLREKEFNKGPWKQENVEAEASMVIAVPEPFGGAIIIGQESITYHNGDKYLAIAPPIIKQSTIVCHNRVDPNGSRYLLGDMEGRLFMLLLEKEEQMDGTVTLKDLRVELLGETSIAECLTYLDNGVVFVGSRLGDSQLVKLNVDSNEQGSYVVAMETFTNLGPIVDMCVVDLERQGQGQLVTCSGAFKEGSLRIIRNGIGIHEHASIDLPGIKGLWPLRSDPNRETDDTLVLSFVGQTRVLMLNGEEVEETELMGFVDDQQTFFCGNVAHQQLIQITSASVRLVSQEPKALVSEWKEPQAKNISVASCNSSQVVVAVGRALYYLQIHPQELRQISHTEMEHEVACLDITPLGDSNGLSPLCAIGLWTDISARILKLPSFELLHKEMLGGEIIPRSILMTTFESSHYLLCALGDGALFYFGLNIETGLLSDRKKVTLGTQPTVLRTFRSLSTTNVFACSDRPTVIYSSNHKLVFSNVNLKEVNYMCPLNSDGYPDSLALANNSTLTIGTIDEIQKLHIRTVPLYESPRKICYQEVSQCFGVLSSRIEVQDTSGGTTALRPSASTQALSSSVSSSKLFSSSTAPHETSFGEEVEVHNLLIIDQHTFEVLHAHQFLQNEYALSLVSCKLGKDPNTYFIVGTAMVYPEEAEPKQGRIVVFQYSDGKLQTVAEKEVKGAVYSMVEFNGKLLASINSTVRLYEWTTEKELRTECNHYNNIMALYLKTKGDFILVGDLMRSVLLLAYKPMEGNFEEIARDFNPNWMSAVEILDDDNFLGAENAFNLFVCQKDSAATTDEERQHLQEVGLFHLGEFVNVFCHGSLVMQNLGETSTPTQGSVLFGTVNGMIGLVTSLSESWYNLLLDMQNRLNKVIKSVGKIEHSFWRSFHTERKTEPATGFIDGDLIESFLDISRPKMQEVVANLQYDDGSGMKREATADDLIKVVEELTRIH
# Experimental: The HiBiT system from Promega was used to develop high-throughput and quantitative assays to measure changes in SALL4 protein levels in response to compounds. The HiBiT tag was derived from a split Nanoluciferase and has the following protein sequence: […] (SEQ ID No: 1). The complementary fragment of Nanoluciferase (known as LgBiT, from Promega), was added to the HiBiT tag to form an active Nanoluciferase enzyme whose activity can be precisely measured. In this way, the levels of a fusion protein with the HiBiT tag can be quantified in cell lysates.
# DNA constructs, based on the Invitrogen pLenti6.2/V5 DEST backbone, were constructed with the HiBiT tag upstream of SALL4 and expressed the fusion protein from a CMV promotor.
# To ensure moderate and consistent expression of the HiBiT-SALL4 fusion protein across all cells in the population, stable cell lines were derived from clones. GripTite 293 MSR cells (293GT) from ThermoFisher Scientific (Catalog number: CRL-R79507), were stably transfected with prepared constructs via electroporation. Following recovery, cells were selected by 10 ug/mL blasticidin in culture media.
# The levels of HiBiT-SALL4 tagged fusion proteins in compound-treated cell lines were measured as follows:
# On day 1, cells were diluted to 1.0×10^6 cells/ml in normal growth medium. 20 μL of cell suspension were plated in each well of a solid white 384-well plate. Plates were incubated overnight in a 37° C. and 5% CO2 humidified tissue culture incubator.
# On day 2, serial dilutions of compounds were made in 384-well plates. Compound plates were set up with DMSO in columns 1, 2, 23, 24, and 10-point compound dilution series in column 3-12 and column 13-22. 10 mM stock solution of compound were placed into column 3 or 13 and a 1:5 serial dilution was carried out until there was a 10-point dilution series per compound. 100 nL of diluted compounds were transferred into the plated cells by Echo® (Labcyte) acoustic transfer. The highest concentration of compound was 50 μM. Plates were incubated overnight (18 hours) in a 37° C. and 5% CO2 humidified tissue culture incubator.
# On day 3, plates were removed from the incubator and allowed to equilibrate at room temperature for 60 minutes. HiBiT substrate (Nano-Glo® HiBit Lytic Detection System, Promega Catalogue number: N3050) was added as described by the manufacturers protocols. Plates were incubated at room temperature for 30 minutes and luminescence was read using an EnVision® reader (PerkinElmer®). Data was analyzed and visualized using the Spotfire® software package.
# SALL4 Amax reflects the DMSO-normalized, curve-fitted percentage of SALL4-HiBiT remaining at 50 uM. It was calculated by normalizing DMSO controls to 100%, parametric curve fitting of the dose response data (10-point, 5-fold), followed by calculation of response at 50 uM using the fitted equation.
# This assay produced a range of SALL4 AC50 and Amax values over several repeat runs due to normal variations in the assay. For a comparison to the compounds described in PCT/IB2020/062070, the arithmatic mean values are reported over the number of repeats specified. […] The compounds of the present disclosure are therefore expected to have improved toxicological properties (Matyskiela, M. E., Couto, S., Zheng, X. et al. SALL4 mediates teratogenicity as a thalidomide-dependent cereblon substrate. Nat Chem Biol 14, 981-987 (2018); Donovan, K. A. et al. Thalidomide promotes degradation of SALL4, a transcription factor Implicated in Duane Radial Ray syndrome. eLife 2018; 7:e38430).
# WIZ = target: T2, WIZ (Homo sapiens, UniProt O95785+Q96SW2); assay: Quantification of WIZ protein levels in HiBit tag fusion protein assay (293T cells); format: cell-based; set-up: Dmax: dose or concentration left out as unconfirmed; details: for remaining activity at 25 µM / Dmax at 25 µM / Dmax: HEK-293T; for remaining activity at 25 µM: read-out: WIZ Amax; for Dmax at 25 µM: 100 − Amax; for Dmax at 25 µM / Dmax: read-out: % degradation of WIZ (100 − Amax); for DC50: WIZ HiBit assay in 293T cells, about 18 hours, 10-point 5-fold dilution, top 25 μM, read-out: WIZ AC50
# T2 construct: expressed in transfected cells
# T2 sequence (O95785 whole entry, the tested form may be a part): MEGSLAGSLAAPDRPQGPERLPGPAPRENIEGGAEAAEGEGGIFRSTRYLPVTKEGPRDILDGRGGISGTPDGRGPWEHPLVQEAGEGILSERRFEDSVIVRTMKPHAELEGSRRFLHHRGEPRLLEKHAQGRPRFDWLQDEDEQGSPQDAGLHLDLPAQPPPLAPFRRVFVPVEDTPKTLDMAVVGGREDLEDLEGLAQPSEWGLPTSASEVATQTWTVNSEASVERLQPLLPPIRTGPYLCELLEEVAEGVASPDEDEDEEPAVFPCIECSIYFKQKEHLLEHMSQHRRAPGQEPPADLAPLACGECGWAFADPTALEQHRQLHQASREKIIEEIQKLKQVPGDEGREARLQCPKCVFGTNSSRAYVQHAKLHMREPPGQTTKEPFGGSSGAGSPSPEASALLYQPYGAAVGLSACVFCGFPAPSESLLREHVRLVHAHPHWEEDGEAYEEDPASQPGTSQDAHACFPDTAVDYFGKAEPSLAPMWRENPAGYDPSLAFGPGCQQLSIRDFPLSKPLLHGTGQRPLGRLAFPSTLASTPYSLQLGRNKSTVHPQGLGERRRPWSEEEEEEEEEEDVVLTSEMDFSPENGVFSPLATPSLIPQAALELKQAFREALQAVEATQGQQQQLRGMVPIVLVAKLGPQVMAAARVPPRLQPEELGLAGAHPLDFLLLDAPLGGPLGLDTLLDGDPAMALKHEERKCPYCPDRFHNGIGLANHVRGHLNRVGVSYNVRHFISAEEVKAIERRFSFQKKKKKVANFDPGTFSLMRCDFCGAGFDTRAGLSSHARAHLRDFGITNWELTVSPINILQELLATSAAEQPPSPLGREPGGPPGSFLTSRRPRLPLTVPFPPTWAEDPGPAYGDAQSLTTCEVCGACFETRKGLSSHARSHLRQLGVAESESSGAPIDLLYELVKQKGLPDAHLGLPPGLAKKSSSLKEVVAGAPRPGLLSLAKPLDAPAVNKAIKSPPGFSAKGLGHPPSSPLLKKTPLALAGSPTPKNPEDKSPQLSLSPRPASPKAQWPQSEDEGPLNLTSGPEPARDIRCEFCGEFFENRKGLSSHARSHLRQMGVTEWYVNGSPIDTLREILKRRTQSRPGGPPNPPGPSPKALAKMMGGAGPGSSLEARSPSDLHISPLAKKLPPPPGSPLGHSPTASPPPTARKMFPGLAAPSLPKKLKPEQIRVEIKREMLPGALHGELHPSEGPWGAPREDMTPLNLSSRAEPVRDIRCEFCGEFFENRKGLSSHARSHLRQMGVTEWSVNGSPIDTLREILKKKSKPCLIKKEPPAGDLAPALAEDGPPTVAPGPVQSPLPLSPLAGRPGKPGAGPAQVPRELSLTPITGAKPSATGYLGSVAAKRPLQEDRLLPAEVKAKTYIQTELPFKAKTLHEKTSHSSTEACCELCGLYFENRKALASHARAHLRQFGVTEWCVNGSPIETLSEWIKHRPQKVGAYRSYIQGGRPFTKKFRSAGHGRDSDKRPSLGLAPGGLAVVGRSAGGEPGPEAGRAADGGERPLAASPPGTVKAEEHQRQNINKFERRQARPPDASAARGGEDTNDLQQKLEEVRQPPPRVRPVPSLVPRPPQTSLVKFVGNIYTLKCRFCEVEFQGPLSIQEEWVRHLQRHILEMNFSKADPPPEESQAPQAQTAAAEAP
# T2 sequence (Q96SW2 whole entry, the tested form may be a part): as the sequence (Q96SW2 whole entry, the tested form may be a part) above
# T2 sequence (Q16531 whole entry partner, the tested form may be a part): as the sequence (Q16531 whole entry partner, the tested form may be a part) above
# Summary of the method: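 293T cells stably carrying a single-copy HiBit-WIZ fusion were exposed to compounds for about 18 hours at 37° C., top concentration 25 μM, 10-point 5-fold series. Lysates were complemented with LgBit and luminescence was read. Amax is the DMSO-normalized, curve-fitted percentage of WIZ-HiBit remaining at 25 uM.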
# [1] = DMSO-normalized, curve-fitted percentage of WIZ-HiBit remaining at 25 uM
"SALL4 Amax (SALL4; DMSO-normalized, curve-fitted percentage of SALL4-HiBiT remaining at 50 uM, mean over repeats) [%]","DC50 (SALL4; arithmatic mean over number of repeats, 18 hours, top 50 μM, read-out: SALL4 AC50) [nM]",remaining activity at 25 µM (WIZ; [1]) [%],Dmax at 25 µM (WIZ) [%],DC50 (WIZ) [nM],SMILES,Dmax (WIZ) [%],remaining activity at 25 µM (WIZ) [%]
52.88,130,,,,"O=C1CCC(N2Cc3cc(OC[C@H]4CCCCN4CC4CC4)ccc3C2=O)C(=O)N1 (stereo partly drawn) [Comparative Example 3, 3-(5-(((R)-1-(cyclopropylmethyl)piperidin-2-yl)methoxy)-1-oxoisoindolin-2-yl)piperidine-2,6-dione, reference compound]",,
,,39,61,45.3,"CCO[C@@H]1C[C@@H](Oc2ccc3c(c2)CN(C2CCC(=O)NC2=O)C3=O)CN(S(C)(=O)=O)C1 (stereo partly drawn) [Example 71, 3-(5-(((3R,5R)-5-ethoxy-1-(methylsulfonyl)piperidin-3-yl)oxy)-1-oxoisoindolin-2-yl)piperidine-2,6-dione]",,
,,40.1,59.9,41.5,"CCO[C@@H]1C[C@@H](Oc2ccc3c(c2)CN(C2CCC(=O)NC2=O)C3=O)CN(CC(C)C)C1 (stereo partly drawn) [Example 72, 3-(5-(((3R,5R)-5-ethoxy-1-isobutylpiperidin-3-yl)oxy)-1-oxoisoindolin-2-yl)piperidine-2,6-dione]",,
,,21.9,78.1,8.9,"CCO[C@@H]1C[C@@H](Oc2ccc3c(c2)CN(C2CCC(=O)NC2=O)C3=O)CN(C(C)C)C1 (stereo partly drawn) [Example 74, 3-(5-(((3R,5R)-5-ethoxy-1-isopropylpiperidin-3-yl)oxy)-1-oxoisoindolin-2-yl)piperidine-2,6-dione]",,
,,13.6,86.5,1.1,"CC(C)N1C[C@H](C)C[C@@H](Oc2ccc3c(c2)CN(C2CCC(=O)NC2=O)C3=O)C1 (stereo partly drawn) [Example 77, 3-(5-(((3R,5R)-1-isopropyl-5-methylpiperidin-3-yl)oxy)-1-oxoisoindolin-2-yl)piperidine-2,6-dione]",,
,,17.3,82.7,1.7,"CC(C)CN1C[C@H](C)C[C@@H](Oc2ccc3c(c2)CN(C2CCC(=O)NC2=O)C3=O)C1 (stereo partly drawn) [Example 79, 3-(5-(((3R,5R)-1-isobutyl-5-methylpiperidin-3-yl)oxy)-1-oxoisoindolin-2-yl)piperidine-2,6-dione]",,
,,28.6,71.4,23.4,"C[C@@H]1C[C@@H](Oc2ccc3c(c2)CN(C2CCC(=O)NC2=O)C3=O)CN(S(C)(=O)=O)C1 (stereo partly drawn) [Example 80, 3-(5-(((3R,5R)-5-methyl-1-(methylsulfonyl)piperidin-3-yl)oxy)-1-oxoisoindolin-2-yl)piperidine-2,6-dione]",,
,,10.7,89.3,2,"CC(C)N1C[C@H](Oc2ccc3c(c2)CN(C2CCC(=O)NC2=O)C3=O)CC[C@@H]1C (stereo partly drawn) [Example 81, 3-(5-(((3R,6S)-1-isopropyl-6-methylpiperidin-3-yl)oxy)-1-oxoisoindolin-2-yl)piperidine-2,6-dione]",,
,,96.8,3.24,> 25000,"CCOC(=O)N1C[C@H](Oc2ccc3c(c2)CN(C2CCC(=O)NC2=O)C3=O)CC[C@@H]1C (stereo partly drawn) [Example 83, ethyl (2S,5R)-5-((2-(2,6-dioxopiperidin-3-yl)-1-oxoisoindolin-5-yl)oxy)-2-methylpiperidine-1-carboxylate]",,
,,81.7,18.3,1170,"CNC(=O)N1C[C@H](Oc2ccc3c(c2)CN(C2CCC(=O)NC2=O)C3=O)CC[C@@H]1C (stereo partly drawn) [Example 84, (2S,5R)-5-((2-(2,6-dioxopiperidin-3-yl)-1-oxoisoindolin-5-yl)oxy)-N,2-dimethylpiperidine-1-carboxamide]",,
,,65.7,34.3,67.2,"C[C@H]1CC[C@@H](Oc2ccc3c(c2)CN(C2CCC(=O)NC2=O)C3=O)CN1S(C)(=O)=O (stereo partly drawn) [Example 85, 3-(5-(((3R,6S)-6-methyl-1-(methylsulfonyl)piperidin-3-yl)oxy)-1-oxoisoindolin-2-yl)piperidine-2,6-dione]",,
,,76,24,> 25000,"CC(=O)N1C[C@H](Oc2ccc3c(c2)CN(C2CCC(=O)NC2=O)C3=O)CC[C@@H]1C (stereo partly drawn) [Example 86, 3-(5-(((3R,6S)-1-acetyl-6-methylpiperidin-3-yl)oxy)-1-oxoisoindolin-2-yl)piperidine-2,6-dione]",,

SMILES,"SALL4 Amax (SALL4; DMSO-normalized, curve-fitted percentage of SALL4-HiBiT remaining at 50 uM, mean over repeats) [%]","DC50 (SALL4; arithmatic mean over number of repeats, 18 hours, top 50 μM, read-out: SALL4 AC50) [nM]",remaining activity at 25 µM (WIZ; [1]) [%],Dmax at 25 µM (WIZ) [%],DC50 (WIZ) [nM],Dmax (WIZ) [%],remaining activity at 25 µM (WIZ) [%]
"CCO[C@@H]1C[C@@H](Oc2ccc3c(c2)CN(C2CCC(=O)NC2=O)C3=O)CN(C2CCC2)C1 (stereo partly drawn) [Example 73, 3-(5-(((3R,5R)-1-cyclobutyl-5-ethoxypiperidin-3-yl)oxy)-1-oxoisoindolin-2-yl)piperidine-2,6-dione]",,,,,23.8,62.8,37.2
"C[C@@H]1C[C@@H](Oc2ccc3c(c2)CN(C2CCC(=O)NC2=O)C3=O)CN(C)C1 (stereo partly drawn) [Example 75-2, 3-(5-(((3R,5R)-1,5-dimethylpiperidin-3-yl)oxy)-1-oxoisoindolin-2-yl)piperidine-2,6-dione]",,,,,4,83.5,16.5
"C[C@@H]1C[C@@H](Oc2ccc3c(c2)CN(C2CCC(=O)NC2=O)C3=O)CN(C2CCC2)C1 (stereo partly drawn) [Example 78, 3-(5-(((3R,5R)-1-cyclobutyl-5-methylpiperidin-3-yl)oxy)-1-oxoisoindolin-2-yl)piperidine-2,6-dione]",,,,,0.5,85.7,14.3
"C[C@H]1CC[C@@H](Oc2ccc3c(c2)CN(C2CCC(=O)NC2=O)C3=O)CN1C1CCC1 (stereo partly drawn) [Example 82, 3-(5-(((3R,6S)-1-cyclobutyl-6-methylpiperidin-3-yl)oxy)-1-oxoisoindolin-2-yl)piperidine-2,6-dione]",,,,,0.5,85,15
"CCC[C@H]1CC[C@@H](Oc2ccc3c(c2)CN(C2CCC(=O)NC2=O)C3=O)CN1 (stereo partly drawn) [Example 87-1, 3-(1-oxo-5-(((3R,6S)-6-propylpiperidin-3-yl)oxy)isoindolin-2-yl)piperidine-2,6-dione]",,,,,35.9,71.4,28.6
"CCC[C@H]1CC[C@@H](Oc2ccc3c(c2)CN(C2CCC(=O)NC2=O)C3=O)CN1CC (stereo partly drawn) [Example 87-2, 3-(5-(((3R,6S)-1-ethyl-6-propylpiperidin-3-yl)oxy)-1-oxoisoindolin-2-yl)piperidine-2,6-dione]",,,,,0.6,89.7,10.3
"CC1(C)CCC(Oc2ccc3c(c2)CN(C2CCC(=O)NC2=O)C3=O)CN1 (centres unmarked) [Example 88-1, 3-(5-((6,6-dimethylpiperidin-3-yl)oxy)-1-oxoisoindolin-2-yl)piperidine-2,6-dione]",,,,,134,50,50
"CCN1CC(Oc2ccc3c(c2)CN(C2CCC(=O)NC2=O)C3=O)CCC1(C)C (centres unmarked) [Example 88-2, 3-(5-((1-ethyl-6,6-dimethylpiperidin-3-yl)oxy)-1-oxoisoindolin-2-yl)piperidine-2,6-dione]",,,,,0.7,79.5,20.5
